From patent US10815233B2, “Dihydroindolizinone derivative” (ONO PHARMACEUTICAL CO., LTD., priority 2014, dated 2020) come the findings set out here.

pIC50: −log10 of the molar value. Marks after values point to notes of the source that are not given here.

Data set [1] has as its target T1, human blood coagulation factor XIa (Homo sapiens, UniProt P03951).
T1 construct: human blood coagulation factor XIa (Haematologic Technologies Inc.); purchased Haematologic Technologies Inc
As to the kind of experiment: Inhibitory activity on human blood coagulation factor XIa (chromogenic substrate S-2366). The format is biochemical. Conditions: chromogenic substrate S-2366, 37° C.; read-out: FXIa inhibitory activity IC50. The method, then: Inhibitory activities of the compound of the present invention on human blood coagulation factor XIa, factor VIIa, factor IXa, factor Xa, factor XIIa, plasma kallikrein and thrombin were evaluated. A chromogenic substrate solution was added to each of enzyme solutions, the absorbance at 405 nm was measured continuously at 37° C. for 5 minutes at intervals of 15 seconds, and the decomposition rate of each of substrates (mOD/min) was calculated. The half maximal (50%) inhibitory concentration (IC50) of the compound of the present invention on each of the enzymes was calculated by linear regression by using least-squares method from the concentration of the compound of the present invention which was converted in terms of natural logarithm and the rate of enzyme inhibition calculated according to the following equation.
The rate of enzyme inhibition (%) of the compound of the present invention was calculated by using the following equation: Rate of enzyme inhibition (%)=100×{(Cont(e)−BL(e))−(Comp(e)−BL(e))/(Cont(e)−BL(e))}
Cont (e): Decomposition rate of substrate (mOD/min) when enzyme solution and substrate solution were added to physiological saline containing 5% dimethyl sulfoxide
Comp (e): Decomposition rate of substrate (mOD/min) when enzyme solution and substrate solution were added to physiological saline containing 5% dimethyl sulfoxide and the compound of the present invention
The inhibitory activity on human blood coagulation factor XIa (Haematologic Technologies Inc.) was measured by using the enzyme solution adjusted to 0.1 U/mL by a buffer solution containing 300 mM of NaCl, 10 mM of KCl, 2 mg/mL of PEG 6000 and 100 mM of HEPES-NaOH (pH 7.4) as well as S-2366 (pyroglu-Pro-Arg-pNA, CHROMOGENIX) adjusted to 1 mM by distilled water.

A short description of data set [2]: Pharmacokinetic (PK) tests in rats. The format is in vivo. Conditions: for concentration at 8 h: male, Crj:CD(SD), oral, 8 hours after administration, read-out: Plasma concentration C8h; for concentration at 8 h / AUC: rat, plasma; for concentration at 8 h / APTT × 2 maintaining time / C8h/APTT × 2: rats; for concentration at 8 h / AUC / C8h/APTT × 2: 1 mg/kg per os; for AUC: po, fasted male Crj:CD(SD) rats; for APTT × 2 maintaining time: 1 mg/kg orally, period when plasma concentration exceeded APTT×2; for C8h/APTT × 2: C8h divided by APTT×2. The method, then:
The compound of the present invention was administered to fasted male Crj:CD(SD) rats by intravenous injection as a single intravenous dose of 0.1 mg/kg (vehicle: 20% HP-β-CD solution) and by forced oral dosage as a dose of 1 mg/kg per os (vehicle: 0.5% methylcellulose solution). Blood samples were collected from cervical vein into heparinized syringes at 0.08, 0.25, 0.5, 1, 3 or 7 hours after administration by intravenous injection or 0.08, 0.25, 0.5, 1, 2, 4, 6, 8 or 24 hours after oral administration. Plasma was obtained by centrifugation, and plasma was stored at −20° C. until measurement of plasma concentration.
In order to measure the plasma concentration of the compound of the present invention, the plasma sample was subjected to deproteinization by using acetonitrile, was filtrated by using a filter, and thereafter, was diluted with purified water, and then was analyzed by LC/MS/MS. A column for analysis (Shim-pack XR-ODSII, 2.0 mm×75 mm, 2.2 μm) and mobile phases (0.1% formic acid in water and 0.1% formic acid in acetonitrile, flow rate: 0.5 mL/min) were used. The system was used by detection of cations in the Multiple Reaction Monitoring (MRM) mode.
The area under the blood concentration versus time curve (AUC) and the bioavailability (BA) of the compound of the present invention were calculated. In addition, as indices of the maintaining time of the anticoagulation activity in the case of oral administration, AUC/APTT×2, which is obtained by dividing AUC by APTT×2, and C8h/APTT×2, which is obtained by dividing C8h (the plasma concentration at 8 hours after administration) by APTT×2, were calculated.
In addition, the period of time when the compound concentration in plasma of the compound of the present invention exceeded APTT×2 (the APTT×2 maintaining time) was calculated from the change in the compound concentration in plasma in the case when the compound of the present invention was orally administered at a dose of 1 mg/kg. The longer the APTT×2 maintaining time is, the longer the period of time is when the anticoagulation activity is maintained after oral administration.

A further data set deals with standard human plasma. As to the kind of experiment: Activated partial thromboplastin time (APTT) in standard human plasma. The format is biochemical. Conditions: concentration required for doubling the coagulation time vs vehicle (1% DMSO). The method, then:
Activated partial thromboplastin time (APTT) and prothrombin time (PT) were measured by using a fully automatic device for measuring blood coagulation (CA-1500, Sysmex Corporation). On APTT or PT measurement, standard human plasma for the blood coagulation tests (Siemens Healthcare Diagnostics GmbH) was mixed with a diluted solution of the compound of the present invention, and thereafter, APTT reagent (Siemens Healthcare Diagnostics GmbH) and 0.02 M of calcium chloride or PT reagent (Siemens Healthcare Diagnostics GmbH) were automatically added to the mixture in order to initiate clot formation. The anticoagulation activity (APTT×2 or PT×2) of the compound of the present invention was expressed as a concentration required for doubling the coagulation time in the vehicle (1% DMSO) group. APTT×2 or PT×2 was determined by plotting the concentration of the compound of the present invention against a twofold increase in the coagulation time.

T1 sequence (P03951 388-625 limits assumed): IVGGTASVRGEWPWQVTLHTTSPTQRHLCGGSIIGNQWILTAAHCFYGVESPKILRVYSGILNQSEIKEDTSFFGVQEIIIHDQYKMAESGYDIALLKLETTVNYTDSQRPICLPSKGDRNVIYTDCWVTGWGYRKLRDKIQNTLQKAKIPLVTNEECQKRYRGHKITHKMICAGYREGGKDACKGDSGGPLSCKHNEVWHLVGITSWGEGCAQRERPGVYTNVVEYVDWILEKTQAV
T1 sequence (P03951 19-387 partner limits assumed): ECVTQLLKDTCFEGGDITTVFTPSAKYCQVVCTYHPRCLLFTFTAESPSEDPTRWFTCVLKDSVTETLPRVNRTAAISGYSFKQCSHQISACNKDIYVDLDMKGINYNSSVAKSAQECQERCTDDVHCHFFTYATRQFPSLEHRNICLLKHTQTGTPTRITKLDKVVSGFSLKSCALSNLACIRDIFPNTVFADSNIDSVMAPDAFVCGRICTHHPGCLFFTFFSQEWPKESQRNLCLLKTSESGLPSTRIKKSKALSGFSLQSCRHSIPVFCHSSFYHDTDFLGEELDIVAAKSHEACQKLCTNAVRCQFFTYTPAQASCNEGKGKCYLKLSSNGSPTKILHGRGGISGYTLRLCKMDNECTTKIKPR

Turning to `Nc1ccc(-c2nc(F)c([C@@H]3CCc4cc(-c5cc(Cl)ccc5-n5cnnn5)cc(=O)n43)[nH]2)c(F)n1` [Example 2 (10), (3S)-3-[2-(6-Amino-2-Fluoro-3-Pyridinyl)-4-Fluoro-1H-Imidazol-5-Yl]-7-[5-Chloro-2-(1H-Tetrazol-1-Yl)Phenyl]-2,3-Dihydro-5(1H)-Indolizinone], the pIC50 in data set [1] is 8.77. In data set [2], the concentration at 8 h was determined as 1000 nM, the AUC stood at 15 µM·h, the “APTT × 2 maintaining time” value is over 8 h and the “C8h/APTT × 2” value is listed as 2.1. In the data set with standard human plasma, the “APTT ×” value worked out at 0.49 µM.
In the case of `Nc1ccc(-c2[nH]c([C@@H]3CCc4nc(-c5cc(Cl)ccc5-n5cnnn5)cc(=O)n43)nc2Cl)c(F)n1` [Comparative Example 3 (2), (6S)-6-[5-(6-amino-2-fluoro-3-pyridinyl)-4-chloro-1H-imidazol-2-yl]-2-[5-chloro-2-(1H-tetrazol-1-yl)phenyl]-7,8-dihydropyrrolo[1,2-a]pyrimidin-4(6H)-one], the pIC50 in data set [1] was 7.96. In data set [2], the concentration at 8 h was 27 nM, the AUC came to 1.4 µM·h, the “APTT × 2 maintaining time” value was 0* h and the “C8h/APTT × 2” value was determined as 0.0073. Besides, the “APTT ×” value in the data set with standard human plasma was determined as 3.7 µM.
Consider `Nc1ccc(-c2nc(F)c([C@@H]3CCc4nc(-c5cc(Cl)ccc5-n5cnnn5)cc(=O)n43)[nH]2)c(F)n1` [Example 3 (4), (6S)-6-[2-(6-Amino-2-Fluoro-3-Pyridinyl)-4-Fluoro-1H-Imidazol-5-Yl]-2-[5-Chloro-2-(1H-Tetrazol-1-Yl)Phenyl]-7,8-Dihydropyrrolo[1,2-a]Pyrimidin-4(6H)-One], for which the pIC50 in data set [1] is 8.72. For the same compound, in data set [2], the concentration at 8 h stood at 1600 nM, the AUC was determined as 28 µM·h, the “APTT × 2 maintaining time” value was over 8 h and the “C8h/APTT × 2” value was 3.4. The “APTT ×” value in the data set with standard human plasma came to 0.47 µM.

For orientation: pIC50 means −log10 of the IC50, conventionally taken in molar units. Broadly, the AUC is the area under the concentration-time curve, a measure of exposure. Read a low AUC as low exposure.
